Experimental findings from US11819497B2 (Azurity Pharmaceuticals, Inc., priority 2018, dated 2023) are described below.

Converted amounts (≈) assume the structure as drawn.

This series in a line: Solubility of nimodipine in various aqueous solvent systems. It counts as physicochemical. As to conditions: for solubility: aqueous solvent system (glycerin/ethanol/water/PEG400), aqueous with cosolvent or surfactant or cyclodextrin, thermodynamic from solid, Nimodipine solubility.

As for `COCCOC(=O)C1=C(C)NC(C)=C(C(=O)OC(C)C)C1c1cccc([N+](=O)[O-])c1` (stereo not drawn) [Nimodipine], the solubility is, setting by setting: (Glycerin 0%, Ethanol 0%, Water 1%, PEG400 99%) 43000 µg/mL (≈ 103 mM); (Glycerin 0%, Ethanol 0%, Water 5%, PEG400 95%) 38000 µg/mL (≈ 90.8 mM); (Glycerin 0%, Ethanol 0%, Water 10%, PEG400 90%) 26000 µg/mL (≈ 62.1 mM); (Glycerin 0%, Ethanol 0%, Water 15%, PEG400 85%) 14000 µg/mL (≈ 33.5 mM); (Glycerin 0%, Ethanol 0%, Water 40%, PEG400 60%) 1300 µg/mL (≈ 3.11 mM); (Glycerin 0%, Ethanol 0%, Water 50%, PEG400 50%) 400 µg/mL (≈ 0.956 mM). Moreover, the solubility is 31000 µg/mL (≈ 74.1 mM) (Glycerin 0%, Ethanol 1.0%, Water 10%, PEG400 89%); 18000 µg/mL (≈ 43 mM) (Glycerin 0%, Ethanol 1.0%, Water 20%, PEG400 79%); 29000 µg/mL (≈ 69.3 mM) (Glycerin 0%, Ethanol 5.0%, Water 10%, PEG400 85%); 14000 µg/mL (≈ 33.5 mM) (Glycerin 0%, Ethanol 5.0%, Water 20%, PEG400 75%); 1500 µg/mL (≈ 3.58 mM) (Glycerin 20%, Ethanol 0%, Water 20%, PEG400 60%); 1600 µg/mL (≈ 3.82 mM) (Glycerin 30%, Ethanol 0%, Water 10%, PEG400 60%). Moreover, the solubility is 13400 µg/mL (≈ 32 mM) (Glycerin 35%, Ethanol 0.4%, Water 1%, PEG400 63%); 5700 µg/mL (≈ 13.6 mM) (Glycerin 35%, Ethanol 0.4%, Water 10%, PEG400 54%); 1500 µg/mL (≈ 3.58 mM) (Glycerin 36%, Ethanol 0.4%, Water 20%, PEG400 43% (Table VI)); 1500 µg/mL (≈ 3.58 mM) (Glycerin 36%, Ethanol 0.4%, Water 20%, PEG400 43% (Table VII)); 2100 µg/mL (≈ 5.02 mM) (Glycerin 39%, Ethanol 0%, Water 1%, PEG400 60%); 1500 µg/mL (≈ 3.58 mM) (Glycerin 46%, Ethanol 0.4%, Water 10%, PEG400 43%). In addition, the solubility runs as follows: (Glycerin 51%, Ethanol 0.4%, Water 5%, PEG400 43%) 4300 µg/mL (≈ 10.3 mM); (Glycerin 55%, Ethanol 0.4%, Water 1%, PEG400 43%, room temperature) 5200 µg/mL (≈ 12.4 mM). Besides, the “Effect of higher amounts of ethanol on nimodipine solubility” value (water, polyethylene glycol, ethanol solvent system, higher amounts of ethanol (Example 2)) is reported as “reduced nimodipine solubility”.
